Reference: ChEMBL document CHEMBL1136674, “Antimycobacterial pimarane diterpenes from the Fungus Diaporthe sp” (Bioorg Med Chem Lett, 2003)
In brackets after ≈: the same amount, converted by molar mass.

Columns and labels:
[1] = test system: Mycobacterium tuberculosis; experiment: Antitubercular activity against Mycobacterium tuberculosis; type: functional
[2] = test system: Vero; experiment: Cytotoxicity against vero cell line; type: functional, cell-based; details: Chlorocebus sabaeus
[3] = test system: BC1 cell line; experiment: Cytotoxicity against BC-1 cell line; type: functional, cell-based; details: Homo sapiens
[4] = test system: KB; experiment: Cytotoxicity against KB cell line; type: functional, cell-based; details: Homo sapiens

NNC(=O)c1ccncc1 [ISONIAZID]
MIC [1]: 0.09 µg/mL (≈ 0.656 µM)

NC[C@H]1O[C@H](O[C@H]2[C@H](O)[C@@H](O[C@H]3O[C@H](CO)[C@@H](O)[C@H](N)[C@H]3O)[C@H](N)C[C@@H]2N)[C@H](O)[C@@H](O)[C@@H]1O.O=S(=O)(O)O [KANAMYCIN SULFATE]
MIC [1]: 5 µg/mL

C=C[C@]1(C)C=C2C(O)[C@]3(O)OC[C@@]4(CCCC(C)(C)[C@@]43O)[C@@]2(O)[C@H](O)C1 (stereo partly drawn) [DIAPORTHEIN A]
IC50 [2]: > 50 µg/mL
MIC [1]: 200 µg/mL (≈ 546 µM)

C=C[C@]1(C)C=C2C(=O)[C@]3(O)OC[C@@]4(CCCC(C)(C)[C@@]43O)[C@@]2(O)[C@H](O)C1 [DIAPORTHEIN B]
IC50 [2]: 1.5 µg/mL (≈ 4.12 µM)
MIC [1]: 3.1 µg/mL (≈ 8.51 µM)

Cc1c2ccncc2c(C)c2c1[nH]c1ccccc12 [ELLIPTECINE]
IC50 [3]: 0.3 µg/mL (≈ 1.22 µM)
IC50 [4]: 0.3 µg/mL (≈ 1.22 µM)
